The subject of one series is PC3 cells. Briefly: Cell viability assay (MTT). In kind it is cell-based, human. To be noted: OD 570 nm, read-out: EC50 (cytotoxicity). How it is done: PC3 cells (3000–5000 cells/well) were seeded onto a 96-well plate. After one day, freshly prepared RPMI media containing different concentrations (0, 1, 5, 10 µM; n = 5) of FTY720 (Selleckchem, Houston, TX, USA) or compound 10 (0, 1, 3, 15, 30 µM; n = 5) were added to the cells, and the mixtures were incubated for 48 or 72 h. The relative number of viable cells was determined by an assay using 3-(4,5-dimethylthiazol-2-yl) -2,5-diphenyltetrazolium bromide (MTT) (Sigma-Aldrich, Saint-Louis, MO, USA), according to the manufacturer’s instructions, on a microplate reader at OD 570 nm. The experiment was repeated in triplicate, and data were represented as the mean ± standard deviation (s.d).

The subject of series [1] is SSTR2^low PC3_sgPTP1B xenografts. Briefly: Small animal PET/CT imaging, tumor uptake in SSTR2^low xenograft. To be noted: same mice, i.v. 3–4.4 MBq, 60-min dynamic PET.
The test system of series [2] is SSTR2^high PC3_VC xenografts. Nature of the series: Small animal PET/CT imaging, tumor uptake in SSTR2^high xenograft. To be noted: same mice, i.v. 3–4.4 MBq, 60-min dynamic PET.
A further series concerns the target T1, human cathepsin B (Homo sapiens, UniProt P07858).
T1 construct: purchased Sino Biological Inc
Briefly: In vitro cathepsin-B-mediated release assay. In kind it is in vitro ADME. To be noted: 37 °C, 1 h. As to the method:
A comparative cathepsin-B-mediated release assay was performed with compound 13 in the presence vs. absence of human cathepsin B (Sino Biological Inc., Chesterbrook, PA, USA). Briefly, compound 13 (150 µg) was dissolved in 60 µL of 100 mM citrate buffer (pH 5.5), followed by adding 300 µg of cysteine. Then, 20 µg of human cathepsin B in 40 µL of 100 mM citrate buffer was added to the mixture and incubated at 37 °C for 1 h. At the end of the incubation, the solution (20 µL) was sampled for HPLC and LC–MS analysis. Controls of this assay included compound 13 without being exposed to cathepsin B, as well as cathepsin B itself processed under the same conditions.

For series [3], the system named is SSTR2^high AR42J and SSTR2^low PC3-Flu cells. Nature of the series: SSTR2-selective cell uptake assay. The conditions noted are these: 1 h incubation at r.t., binding buffer (20 mM tris, 150 mM NaCl, pH 7.4), ~7.1 × 10^5 CPM, gamma counting, uptake in SSTR2^low cells set at 1, n = 3. In kind it is cell-based.
The subject of the next series is SSTR2^high AR42J cells. Nature of the series: Internalization assay. The conditions noted are these: after 60 min, ~5 × 10^5 CPM, acid strip (glycine pH 3.0), gamma counting, n = 3. The class given is cell-based.

Like-named read-outs stand apart in the source and are kept apart here. A value given as a limit tells only on which side of the number the result lay.

The EC50 is the midpoint of the concentration-response curve. Take `CCCCCCCCc1ccc(CCC(CO)(CO)NC(=O)OCc2ccc(NC(=O)[C@H](CCCNC(N)=O)NC(=O)[C@@H](NC(=O)CCOCCOCCOCCN=[N+]=[N-])C(C)C)cc2)cc1` [Compound 10, Val-Cit-pABOC-FTY720]: the 50% effective concentration (EC50) in the series with PC3 cells (48 h incubation) and with PC3 cells (72 h incubation) was over 15 µM throughout.

With `CCCCCCCCc1ccc(CCC(N)(CO)CO)cc1` [FTY720, fingolimod, reference compound], the EC50 was about 5 µM in the series with PC3 cells (Homo sapiens, PC-3, 48 h incubation) and about 5 µM with PC3 cells (Homo sapiens, PC-3, 72 h incubation).

On to `O=C([O-])CN(CCN(CC(=O)[O-])Cc1cc(CCC(=O)NCCCCCC(=O)NCCCC[C@H](NC(=O)N[C@@H](CCC(=O)O)C(=O)O)C(=O)O)ccc1[O-])Cc1cc(CCC(=O)O)ccc1[O-].[68Ga+3].[OH3+]` [[^68Ga]Ga-PSMA-11], for which the “tumor uptake in SSTR2^low PC3_sgPTP1B tumors (in words)” value in series [1] is given as “low uptake”. Besides, the “tumor uptake in SSTR2^high PC3-VC tumors (in words)” value in series [2] is “low uptake”.

For the compound “DOTA-PEG3-TZ(PEG4-Octr)-PEG2-Trz-PEG3-Val-Cit-pABOC-FTY720 (disulfide) [Compound 13]”, the “cathepsin-B-mediated release of FTY720” value with human cathepsin B (150 µg compound, 20 µg human cathepsin B, 100 mM citrate buffer pH 5.5, cysteine, HPLC and LC-MS read-out) is “cathepsin-B-mediated release of FTY720 was further confirmed”. Also, in the series with human cathepsin B (same conditions without cathepsin B: 100 mM citrate buffer pH 5.5, cysteine, LC-MS read-out (FTY720 peak 366.0488 [M + 2H2O + Na]+)), the “release of FTY720 in the absence of cathepsin B (control)” value is recorded as “the peak of 366.0488 was absent”.

Consider “[^64Cu]Cu-DOTA-PEG3-TZ(PEG4-Octr)-PEG2-Trz-PEG3-Val-Cit-pABOC-FTY720 (disulfide)”, for which, in series [3], the “normalized uptake, accumulation in SSTR2^high AR42J cells relative to SSTR2^low PC3-Flu cells” value is on record as “six-fold higher”. In addition, in the series with SSTR2^high AR42J cells, the “internalized percentage (Internalized/Total Bound%)” value is recorded as “approximately 40%”.

For the origin of these results see article PMC9967013, “A Theranostic Small-Molecule Prodrug Conjugate for Neuroendocrine Prostate Cancer” (Pharmaceutics, 2023).
